Measurements as given in patent publication US6060600A, “Substituted tetronic acids useful for treating HIV and other retroviruses” (Pharmacia & Upjohn Company, priority 1997, dated 2000).
Square brackets hold non-standard residues; d marks the D form. Peptide text beside a SMILES is read from it. * marks the point of attachment. Sta = CC(C)C[C@H](N)[C@@H](O)CC(=O)O; Isovaleryl = CC(C)CC(=O)*

Key:
HIV-1 protease = target: T1, HIV-1 protease (Human immunodeficiency virus type 1 group M subtype B, UniProt P04585); test: In vitro HIV protease inhibitory assay (fluorescently labeled substrate); type: biochemical; details: pH 5.5, one hour, room temperature
T1 construct: The protease (or proteinase) enzyme, consisting of only 99 amino acids
Method: The HIV protease screening assay is based on a fluorescently labeled substrate which can be resolved from nonlabeled cleavage product using avidin-polystyrene particles, 0.7-0.9 μm. The substrate is biotinylated at the amino terminal arginine and fluorescently labeled with fluorescein isothiocynate (FITC) at the carboxyl terminal lysine. This assay has been employed to detect novel, nonpeptidic inhibitors of HIV-1 protease. Substrate (20 μl of 0.2 μM), sample (10 μl of desired concentration), and enzyme (10 μl of 0.1 μM) are added to a 96 well pandex plate. The assay is run in 0.1 M sodium acetate buffer at pH 5.5 in the presence of 1.0 M sodium chloride and 0.05% NP-40 and incubated in the dark for one hour at room temperature. Avidin coated polystyrene beads (40 μl of 0.1% (w/v)) are added and the incubation is continued in the dark for an additional half hour. The labeled cleavage product is separated from the unreacted substrate via filtration and is read on the IDEXX Screen Machine. (IDEXX Corporation--Portland, Maine) The data are analyzed by appropriate computer algorithms to ascertain percent inhibition values.
The Activity Table showing the results of the HIV Protease Inhibitory Assay appears below in TABLE 1. The table has three columns, the left column provides the code number of the compound for easy cross reference to structure tables and detailed procedures, the middle column provides the concentration of test compound and the column on the right provides the percent inhibition.

[1] = system: viral reverse transcriptase; details: cited from earlier work
HIV-I protease = details: Seelmeier et al.; cited from earlier work
[2] = HIV-1 Dose 3.3 (unit not given)
[3] = HIV-1 Dose 10.0 (unit not given)
[4] = HIV-1 Dose 30.0 (unit not given)

Row | SMILES | % Inhibition (HIV-1 protease; [2]) | % Inhibition (HIV-1 protease; [3]) | % Inhibition (HIV-1 protease; [4]) | inhibitor of viral reverse transcriptase [1] | inhibitor of HIV-I protease (HIV-I protease)
1 | CCCC1(CCC)OC(=O)C(C(c2cccc(N(C)S(=O)(=O)c3ccc(C#N)cc3)c2)C2CC2)=C1O (centres unmarked) [AX-1] | 103.5% | 111.53% | 102.32% |  | 
2 | Cc1cn([C@H]2C[C@H](N=[N+]=[N-])[C@@H](CO)O2)c(=O)[nH]c1=O [AZT, 3-azido-3-deoxythymidine] |  |  |  | known inhibitor of viral reverse transcriptase | 
3 | N#Cc1ccc(S(=O)(=O)Nc2cccc(C(C3=C(O)C4(CCN(C(=O)OCC5c6ccccc6-c6ccccc65)CC4)OC3=O)C3CC3)c2)cc1 (centres unmarked) [BX-1] | 113.09% | 126.98% | 123.63% |  | 
4 | N#Cc1ccc(S(=O)(=O)Nc2cccc(C(C3=C(O)C4(CCNCC4)OC3=O)C3CC3)c2)cc1 (centres unmarked) [BX-2] | 90.58% | 103.27% | 101.26% |  | 
5 | N#Cc1ccc(S(=O)(=O)Nc2cccc(C(C3=C(O)C4(CCN(CC5c6ccccc6-c6ccccc65)CC4)OC3=O)C3CC3)c2)cc1 (centres unmarked) [BX-3] | 108.72% | 107% | 103.12% |  | 
6 | CCN1CCC2(CC1)OC(=O)C(C(c1cccc(NS(=O)(=O)c3ccc(C#N)cc3)c1)C1CC1)=C2O (centres unmarked) [BX-4] | 71.3% | 94.47% | 101.07% |  | 
7 | CN1CCC2(CC1)OC(=O)C(C(c1cccc(NS(=O)(=O)c3ccc(C#N)cc3)c1)C1CC1)=C2O (centres unmarked) [BX-5] | 61.58% | 85.22% | 98.54% |  | 
8 | CC(=O)N1CCC2(CC1)OC(=O)C(C(c1cccc(NS(=O)(=O)c3ccc(C#N)cc3)c1)C1CC1)=C2O (centres unmarked) [CX-1] | 107.43% | 98.33% | 103.37% |  | 
9 | N#Cc1ccc(S(=O)(=O)Nc2cccc(C(C3=C(O)C4(CCN(C(=O)c5ccccc5)CC4)OC3=O)C3CC3)c2)cc1 (centres unmarked) [CX-2] | 107.56% | 109.04% | 110.58% |  | 
10 | CCCC1(CCC)OC(=O)C(C(c2cccc(NS(=O)(=O)c3cccnn3)c2)C2CC2)=C1O (centres unmarked) [DX-1] | 108.97% | 109.57% | 113.85% |  | 
11 | CCC1CCCCC12OC(=O)C(C(c1cccc(NS(=O)(=O)c3ccc(C#N)cc3)c1)C1CC1)=C2O (centres unmarked) [DX-2] | 115.79% | 115.80% | 113.98% |  | 
12 | CCC1CCCCC12OC(=O)C(C(c1cccc(NS(=O)(=O)c3ccc(C#N)cc3)c1)C1CC1)=C2O (centres unmarked) [DX-3] | 117.26% | 110.16% | 113.83% |  | 
13 | C=CCC1(CC=C)OC(=O)C(C(c2ccccc2)C2CC2)=C1O (centres unmarked) [DX-4] | 108.42% | 106.81% | 106.29% |  | 
14 | CC(C)CC(=O)N[C@H](C(=O)N[C@H](C(=O)N[C@@H](CC(C)C)[C@@H](O)CC(=O)N[C@@H](C)C(=O)N[C@@H](CC(C)C)[C@@H](O)CC(=O)O)C(C)C)C(C)C [Pepstatin A] (Isovaleryl-VV[Sta]A[Sta]-OH) |  |  |  |  | inhibitor of HIV-I protease
